# “Also recorded” adds a separate entry of the source.
# Experiments:
# [1] = Visual dispersion quality (physical stability) of MDI formulations in HFA-134a after 24 hours; assay type: physicochemical; set-up: key: Poor: Phase separation; top phase clear, bottom phase containing solids; Fair: Partial phase separation; cloudiness in the top phase; Good: Grainy appearance; no phase separation; Clear solution
# Method: MDI formulations for performance testing were prepared in the following manner: For each test formulation, about 5 mL (or 7.4 grams) of glass beads were placed into a suitable glass aerosol container (vial), along with 100 mg to 250 mg drug and a vegetable oil in the amounts needed to produce the desired final concentrations. All vegetable oils used in the following examples were purchased from Sigma® Chemical Company (St. Louis, Mo., 63178). The vials were crimped shut with valves having delivery values (volumes per spray) of 50 μL, and then charged with 10 mL of HFA-134a propellant. The filled vials were then shaken for 24 hours at about 50 cycles/minute to mill and disperse the drug. […] The formulations were then used in the in vitro or in vivo studys described below.
# A determination of the effect of vegetable oils on the physical stability of several MDI formulations prepared with HFA-134a was conducted as follows: A vegetable oil was combined either with (1) leuprolide acetate (Table 2a) or (2) 5-LO inhibitor #1 (Table 2b) in the amounts indicated and placed in appropriate transparent aerosol containers (vials). […] The dispersion quality in each preparation was evaluated visually after 24 hours using the following criteria: […]
# [2] = Bioavailability / plasma pharmacokinetics after inhalation (MDI) versus i.v. in tracheostomized dogs; details: dog, in vivo
# [3] = as above; assay type: in vivo; details: dog
# Method: All quantitative analyses for 5-LO inhibitor #1 formulations were performed by high pressure liquid chromatography (HPLC). The mobile phase composition was 30% v/v tetrahydrofuran in water with 0.128% w/v tetramethylammonium perchlorate and 0.075% v/v trifluoroacetic acid. A Regis Little Champ™ C-18, 4.6×50 mm column was used. The mobile phase flow rate was maintained at 1.0 milliliters/minute (mL/min). Detection wavelength was set at 282 nanometers (nm) and typical injection volumes were between 25 to 50 microliters (μL). Under these conditions, the standard curve for the parent drug was linear between the range of 3 to 75 micrograms/milliliter (μg/mL) (r^2 ≥0.990), with a run time of about 8 minutes.
# Using a test preparation containing 25 mg/mL 5-LO inhibitor #1 and 2.5 mg/mL olive oil in HFC-134a propellant, pulmonary absorption and in vivo distribution (i.e. bioavailibility factors) were assessed in four tracheostomized dogs (Marshall Farms, N.Y.) weighing about 10 kilograms (kg) each. Four sprays, delivering 1.25 mg of active 5-LO inhibitor #1/spray, were delivered to the trachea of each dog, resulting in a total drug dose of about 0.5 mg/kg. Blood samples were collected at 0.25, 0.5, 1, 2, 3.5, 5, 7, 9, 12 and 24 hours after dosing and the plasma assayed for drug concentration using the HPLC method described in Example 1A above.
# [4] = inhaled or intranasal, 0.5 mg/kg, Plasma concentration (5-LO Inhibitor Levels)
# [5] = iv, 0.5 mg/kg, Plasma concentration (5-LO Inhibitor Levels)
# [6] = in vivo, inhaled or intranasal, 0.5 mg/kg
# [7] = in vivo, inhaled or intranasal, 0.5 mg/kg, Plasma concentration (5-LO Inhibitor Levels)
compound,measurement,setting,value
"CCNC(=O)[C@@H]1CCCN1C(=O)[C@H](CCCNC(=N)N)NC(=O)[C@H](CC(C)C)NC(=O)[C@@H](CC(C)C)NC(=O)[C@H](Cc1ccc(O)cc1)NC(=O)[C@H](CO)NC(=O)[C@H](Cc1c[nH]c2ccccc12)NC(=O)[C@H](Cc1c[nH]cn1)NC(=O)[C@@H]1CCC(=O)N1 [Leuprolide Acetate, leuprolide acetate, reference compound]",Dispersion Quality (measured after 24 Hours),"[1]; Table 2a, leuprolide acetate formulations (or excipients alone) in HFA-134a",Poor
"CC(C#Cc1ccc(Cc2ccc(F)cc2)s1)N(O)C(N)=O (stereo not drawn) [5-LO inhibitor #1, N-[3-[5-(4-fluorophenylmethyl)-2-thienyl]-1-methyl-2-propynyl]-N-hydroxyurea]",duration of drug absorption after dosing,[2],6 to 8 h
same,AUC(0-t) at 24 h,"[2]; inhaled or intranasal, 0.5 mg/kg",1600 ± 400 ng·h/mL
same,bioavailability,"[2]; inhaled or intranasal, 0.5 mg/kg, Bioavailability (absolute lung bioavailability versus i.v.)",~64%
same,concentration at 2 h,[2]; [4],40 ± 30 ng/mL
same,concentration at 3.5 h,[2]; [4],90 ± 60 ng/mL
same,concentration at 5 h,[2]; [4],80 ± 60 ng/mL
same,concentration at 12 h,[2]; [4],70 ± 40 ng/mL
same,AUC(0-t) at 24 h,"[2]; iv, 0.5 mg/kg",5060 ± 1040 ng·h/mL
same,Plasma concentration (5-LO Inhibitor Levels),"[2]; iv, 0.5 mg/kg, 0 min",0 ng/mL
same,Plasma concentration (5-LO Inhibitor Levels),"[2]; iv, 0.5 mg/kg, 0.25 h",590 ± 50 ng/mL
same,Plasma concentration (5-LO Inhibitor Levels),"[2]; iv, 0.5 mg/kg, 12 h",180 ± 60 ng/mL
same,concentration at 0.08 h,[2]; [5],630 ± 60 ng/mL
same,concentration at 0.25 h,[2]; [5],~600 ng/mL
same,concentration at 0.5 h,[2]; [5],600 ± 40 ng/mL
same,concentration at 1 h,[2]; [5],520 ± 40 ng/mL
same,concentration at 2 h,[2]; [5],480 ± 50 ng/mL
same,concentration at 4 h,[2]; [5],370 ± 60 ng/mL
same,concentration at 6 h,[2]; [5],300 ± 50 ng/mL
same,concentration at 8 h,[2]; [5],230 ± 50 ng/mL
same,concentration at 12 h,[2]; [5],~200 ng/mL
same,concentration at 24 h,[2]; [5],70 ± 20 ng/mL
same,Cmax,[3]; [6],150 ± 30 ng/mL
same,Tmax,[3]; [6],10.4 ± 9.23 h
same,Plasma concentration (5-LO Inhibitor Levels),"[3]; in vivo, inhaled or intranasal, 0.5 mg/kg, 1 h",30 ± 20 ng/mL
same,concentration at 0.5 h,[3]; [7],10 ± 10 ng/mL
same,concentration at 1 h,[3]; [7],30 ng/mL
same,concentration at 7 h,[3]; [7],120 ± 70 ng/mL
same,concentration at 9 h,[3]; [7],90 ± 50 ng/mL
same,concentration at 24 h,[3]; [7],50 ± 60 ng/mL
same,concentration at 12 h,"[3]; in vivo, inhaled or intranasal, 0.5 mg/kg, drug levels maintained",≥ 70 ng/mL
same,onset and absorption from the lungs (in words),[3]; inhalation formulation,fast onset of drug absorption; also recorded: rapid onset and prolonged absorption of drug from the lungs
same,Dispersion Quality (measured after 24 Hours),"[1]; Table 2b, 5-LO inhibitor #1 formulations in HFA-134a",Poor

# — US5635161A, “Aerosol drug formulations containing vegetable oils” (priority 1995, dated 1997)
